In PubChem BioAssay (NCI):
“And” between values parts separate entries of the source, which are not always exact repeats. Identical values can stand only once.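 Exposure lasted 48 hours, with cells grown in 96-well plates and compounds tested at five concentrations. At the GI50, growth is halved. The concentration for full growth arrest is given as TGI.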

Legend:
Assay in all cases: NCI tumour cell line growth inhibition, 48 h
COLO 205 colon = tested on: COLO 205 colon
HCT-116 colon = tested on: HCT-116 colon
IGROV1 ovarian = tested on: IGROV1 ovarian
MOLT-4 leukemia = tested on: MOLT-4 leukemia
NCI-H23 lung = tested on: NCI-H23 lung
OVCAR-4 ovarian = tested on: OVCAR-4 ovarian
TK-10 renal = tested on: TK-10 renal
HS 578T breast = tested on: HS 578T breast
SR leukemia = tested on: SR leukemia
MDA-MB-231 breast = tested on: MDA-MB-231 breast

Structure (SMILES) | TGI (COLO 205 colon) | TGI (HCT-116 colon) | TGI (IGROV1 ovarian) | TGI (MOLT-4 leukemia) | TGI (NCI-H23 lung) | TGI (OVCAR-4 ovarian) | TGI (TK-10 renal) | GI50 (COLO 205 colon) | GI50 (HCT-116 colon) | TGI (HS 578T breast) [µM] | GI50 (IGROV1 ovarian) | GI50 (MOLT-4 leukemia) | GI50 (NCI-H23 lung) | GI50 (OVCAR-4 ovarian) | GI50 (SR leukemia) | TGI (SR leukemia) | GI50 (TK-10 renal) | TGI (MDA-MB-231 breast) [µM] | GI50 (MDA-MB-231 breast) [µM] | GI50 (HS 578T breast) [µM]
C=C1C=CC2(Br)OC3CC(C)(Cl)C(Br)CC13C2(C)C (stereo not given) | 30.9 µM | 28.5 µM | 92.7 µM | 34.9 µM | 39.2 µM | > 100 µM | > 100 µM | – | – | – | – | – | – | – | – | – | – | – | – | –
COc1c(OC(C)C)cc2cc(O)c(C(=O)NC3Cc4ccc(c(Cl)n4)O[C@@H]4C=C5C#C/C(=C\C#CC6OC56C4OC4CC(C)(O)C(O)C(C)O4)C(OC4CC(O)C(N(C)C)C(C)O4)COC3=O)cc2c1OC (stereo not given in full) | > 36.3 µM and 13.6 µg/mL | 15.7 µg/mL | > 36.3 µM and 37.5 µg/mL | 14.2 µg/mL | > 36.3 µM and 1.79 µg/mL | > 36.3 µM and 37.5 µg/mL | > 36.3 µM and 37.5 µg/mL | > 36.3 µM and 0.345 µg/mL | 0.584 µg/mL | > 36.3 | > 36.3 µM and 37.5 µg/mL | 0.00979 µg/mL | 6.32 µM and 0.296 µg/mL | > 36.3 µM and 30.8 µg/mL | 8.27 µM and 0.0174 µg/mL | > 36.3 µM and 0.746 µg/mL | > 36.3 µM and 37.5 µg/mL | – | – | –
O=C1C(Sc2ccc3ccccc3c2)=C(Sc2ccc3ccccc3c2)C(=O)c2ccccc21 | 12.8 µM | 20.2 µM | – | 5.9 µM | 22.1 µM | 15.2 µM | – | – | – | 62.3 | – | – | – | – | – | – | – | 18.3 | – | –
N#CNC1=NC(N)C(c2nc3ccccc3[nH]2)=C(CCCC(=O)Nc2cccc([N+](=O)[O-])c2)N1 (stereo not given) | > 100 µM | – | > 100 µM | > 100 µM | > 100 µM | > 100 µM | > 100 µM | – | – | – | – | – | – | – | – | – | – | – | – | –
Nc1nc2ccccc2c2c1S(=O)(=O)c1ccc(Cl)cc1C2=O | 6.85 µM | 32 µM | > 50 µM | 8.86 µM | > 50 µM | 10.8 µM | > 50 µM | 1.94 µM | 1.87 µM | – | 1.7 µM | 1.42 µM | 2.48 µM | 1.46 µM | 0.917 µM | > 50 µM | 1.93 µM | > 50 | 1.57 | –
CCOC(=O)C(CCCNC(=O)OC(C)(C)C)N(Cc1ccc(OC)cc1OC)C(=O)CC(=O)CP(=O)(OCC)OCC (stereo not given) | > 100 µM | > 100 µM | > 100 µM | > 100 µM | > 100 µM | > 100 µM | > 100 µM | – | – | – | – | – | – | – | – | > 100 µM | – | – | – | –
COC(=O)c1cc([N+](=O)[O-])cc([N+](=O)[O-])c1Cl | 3.1 µM | 2.63 µM | – | – | 69.6 µM | 3.17 µM | 6.48 µM | 1.65 µM | 1.06 µM | 5.86 | – | – | 19.3 µM | 1.76 µM | – | – | 2.48 µM | 5.79 | 2.34 | 2.28
COc1cc(/C=C/C(=O)O[C@H]2[C@H](O[C@@H]3O[C@@H](C)[C@H](O)[C@@H](O)[C@H]3O)[C@@H](O)[C@H](OCCc3ccc(O)c(O)c3)O[C@@H]2COC2OCC(O)(CO)C2O)ccc1O (stereo not given in full) | > 100 µM | > 100 µM | > 100 µM | > 100 µM | – | > 100 µM | > 100 µM | > 100 µM | > 100 µM | > 100 | > 100 µM | > 100 µM | – | > 100 µM | > 100 µM | > 100 µM | > 100 µM | > 100 | > 100 | 67.6
C/C(=N\NC(=O)C(N)=O)c1c(O)cc(C)oc1=O | – | > 100 µM | > 100 µM | > 100 µM | > 100 µM | > 100 µM | > 100 µM | – | – | – | – | – | – | – | – | > 100 µM | – | – | – | –
Cc1ccc(S(=O)(=O)NC(=O)OC23COCN2COC3)cc1 | > 100 µM | > 100 µM | > 100 µM | – | > 100 µM | > 100 µM | > 100 µM | – | – | > 100 | – | – | – | – | – | > 100 µM | – | > 100 | – | –
CN1CCCC1c1cccnc1.O=C(O)c1ccccc1O.O=C([O-])c1ccccc1[OH2+].O=C([O-])c1ccccc1[OH2+].[Mn+2] (stereo not given) | > 100 µM | > 100 µM | > 100 µM | > 100 µM | > 100 µM | > 100 µM | > 100 µM | > 100 µM | > 100 µM | > 100 | > 100 µM | 64.9 µM | > 100 µM | > 100 µM | – | – | > 100 µM | > 100 | > 100 | > 100
C[C@@H](NC(=O)c1ccc(F)cc1)c1ccc2c(c1)CCN2C(=O)C1CCOCC1 | > 100 µM | > 100 µM | > 100 µM | > 100 µM | > 100 µM | > 100 µM | – | > 100 µM | > 100 µM | > 100 | > 100 µM | > 100 µM | > 100 µM | > 100 µM | > 100 µM | > 100 µM | – | > 100 | > 100 | > 100
N#CC1C(N)=NNC12Nc1ccccc1S2 (stereo not given) | 82.5 µM | 35.9 µM | 20.6 µM | – | 22.8 µM | – | > 100 µM | 26.5 µM | 11.5 µM | 71.7 | 3.22 µM | – | 5.23 µM | – | 8.81 µM | 29.9 µM | 41.5 µM | 16.6 | 3.59 | 17.4
Clc1ccc([I+]c2ccc(Cl)cc2Cl)c(Cl)c1 | 3.64 µM | 3.67 µM | – | 6.62 µM | 4.83 µM | 4.52 µM | – | 1.95 µM | 1.85 µM | 8.81 | – | 2.5 µM | 2.13 µM | 1.95 µM | 2.19 µM | 5.65 µM | – | 4.42 | 2.04 | 2.48
CC1CCC2(C)C(CC=C(C=O)C2(O)C=O)C12CO2 (stereo not given) | 4.29 µM | 6.65 µM | 7.72 µM | 5.83 µM | 5.83 µM | 5.2 µM | 5.19 µM | – | – | – | – | – | – | – | – | 5.33 µM | – | – | – | –
CCN(Cc1ccc(F)cc1)c1ccc(CO)c(C(F)(F)F)c1 | 27.5 µM | 12.8 µM | 11.6 µM | 43.5 µM | 24.2 µM | 12.8 µM | – | 14.4 µM | 1.54 µM | 40.3 | 1.56 µM | 15.2 µM | 11.1 µM | 1.79 µM | – | – | – | 27.3 | 14.3 | 14.1
O=C(c1c(O)cc(O)cc1O)C1Cc2ccccc21 (stereo not given) | > 100 µM | > 100 µM | > 100 µM | > 100 µM | – | > 100 µM | > 100 µM | – | – | – | – | – | – | – | – | > 100 µM | – | – | – | –
